In assay [1] the target is Matrix metalloproteinase-9 (Homo sapiens, UniProt P14780). The experiment in a line: In vitro inhibition of Matrix metalloprotease-9.
For assay [2], the target named is T1, Disintegrin and metalloproteinase domain-containing protein 17 (Homo sapiens, UniProt P78536). The experiment in a line: In vitro inhibition of TNF-alpha converting enzyme.
The target in assay [3] is T2, Interstitial collagenase (Homo sapiens, UniProt P03956).
T2 sequence (P03956 whole entry): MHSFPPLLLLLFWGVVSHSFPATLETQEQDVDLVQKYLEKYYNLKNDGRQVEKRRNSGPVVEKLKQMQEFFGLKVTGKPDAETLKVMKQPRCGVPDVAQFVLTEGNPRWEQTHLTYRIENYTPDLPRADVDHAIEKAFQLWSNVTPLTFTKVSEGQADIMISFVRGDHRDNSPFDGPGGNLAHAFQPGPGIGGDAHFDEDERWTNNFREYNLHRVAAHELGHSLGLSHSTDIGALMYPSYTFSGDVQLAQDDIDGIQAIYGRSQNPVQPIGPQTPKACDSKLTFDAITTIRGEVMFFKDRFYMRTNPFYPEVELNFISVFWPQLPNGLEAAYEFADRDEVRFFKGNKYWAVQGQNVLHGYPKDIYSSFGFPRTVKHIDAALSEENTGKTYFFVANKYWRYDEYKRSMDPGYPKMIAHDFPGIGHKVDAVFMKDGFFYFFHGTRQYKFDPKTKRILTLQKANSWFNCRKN
The experiment in a line: In vitro inhibition of Matrix metalloprotease-1.

Assay [4] deals with T3, Collagenase 3 (Homo sapiens, UniProt P45452). The experiment in a line: In vitro inhibition of Matrix metalloprotease-13.
The target in assay [5] is T3, Collagenase 3.
Description: Inhibition of Matrix metalloprotease-13
Assay [6] addresses T1, Disintegrin and metalloproteinase domain-containing protein 17. The experiment in a line: Inhibition of TNFalpha converting enzyme, TACE.
Assay [7] addresses T2, Interstitial collagenase. The experiment in a line: Inhibition of Matrix metalloprotease-1.

SMILES strings stand for the structures. Values joined by “and” are separate entries in the source; they are usually repeats but may differ in a detail not shown here. Equal entries are not always repeated.

Chain of Matrix metalloproteinase-9 (P14780 whole entry, the tested form may be a part): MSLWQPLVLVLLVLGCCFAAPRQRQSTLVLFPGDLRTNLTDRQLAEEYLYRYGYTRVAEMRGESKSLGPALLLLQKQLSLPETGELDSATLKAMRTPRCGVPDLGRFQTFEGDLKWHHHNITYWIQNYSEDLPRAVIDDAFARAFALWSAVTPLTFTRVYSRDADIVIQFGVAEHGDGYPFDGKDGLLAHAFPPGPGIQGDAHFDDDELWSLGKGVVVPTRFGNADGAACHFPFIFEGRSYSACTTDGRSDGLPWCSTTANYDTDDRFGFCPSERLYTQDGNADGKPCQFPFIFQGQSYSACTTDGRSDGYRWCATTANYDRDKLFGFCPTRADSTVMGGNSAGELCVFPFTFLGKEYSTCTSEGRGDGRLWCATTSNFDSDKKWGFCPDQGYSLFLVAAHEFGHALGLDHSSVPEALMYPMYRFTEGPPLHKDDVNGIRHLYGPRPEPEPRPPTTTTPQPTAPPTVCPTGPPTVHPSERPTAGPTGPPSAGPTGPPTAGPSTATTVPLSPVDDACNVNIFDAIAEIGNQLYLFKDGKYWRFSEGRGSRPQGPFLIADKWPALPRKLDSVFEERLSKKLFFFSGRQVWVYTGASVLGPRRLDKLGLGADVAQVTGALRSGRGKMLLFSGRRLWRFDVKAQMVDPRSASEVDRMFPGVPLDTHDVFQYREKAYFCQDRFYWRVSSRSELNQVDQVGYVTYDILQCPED
T1 sequence (P78536 whole entry, the tested form may be a part): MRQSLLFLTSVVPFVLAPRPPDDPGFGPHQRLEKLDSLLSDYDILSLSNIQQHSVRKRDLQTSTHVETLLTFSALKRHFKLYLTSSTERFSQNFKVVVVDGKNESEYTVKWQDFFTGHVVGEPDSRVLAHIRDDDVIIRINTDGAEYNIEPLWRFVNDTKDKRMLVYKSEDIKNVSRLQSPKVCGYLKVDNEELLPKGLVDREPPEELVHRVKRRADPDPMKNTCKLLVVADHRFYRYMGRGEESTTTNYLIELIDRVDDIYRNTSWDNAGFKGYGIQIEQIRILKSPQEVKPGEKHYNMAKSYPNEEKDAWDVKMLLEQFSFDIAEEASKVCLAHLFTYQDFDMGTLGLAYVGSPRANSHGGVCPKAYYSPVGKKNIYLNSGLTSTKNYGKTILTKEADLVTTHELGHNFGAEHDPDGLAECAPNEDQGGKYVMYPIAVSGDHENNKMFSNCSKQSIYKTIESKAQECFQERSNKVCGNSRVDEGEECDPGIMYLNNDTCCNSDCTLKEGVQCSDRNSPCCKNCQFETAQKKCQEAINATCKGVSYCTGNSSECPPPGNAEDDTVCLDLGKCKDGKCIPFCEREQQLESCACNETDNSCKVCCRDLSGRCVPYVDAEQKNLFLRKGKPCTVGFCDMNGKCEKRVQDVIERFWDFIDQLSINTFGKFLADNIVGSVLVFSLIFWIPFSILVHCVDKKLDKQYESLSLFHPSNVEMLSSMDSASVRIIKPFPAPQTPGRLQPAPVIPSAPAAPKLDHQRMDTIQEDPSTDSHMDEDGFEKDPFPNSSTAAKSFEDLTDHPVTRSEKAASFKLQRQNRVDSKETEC

Compound `COc1ccc(S(=O)(=O)N(Cc2ccc(OCCN3CCCCC3)cc2)c2c(C)cccc2C(=O)NO)cc1` had a concentration for half-maximal inhibition (IC50) in assay [1] of 7 nM.
Regarding `CCN(CC)CC#CCN(c1c(C)cc(Br)cc1C(=O)NO)S(=O)(=O)c1ccc(OC)cc1`, the IC50 was 36 nM in assay [2], 150 nM in assay [3], 7 nM in assay [4] and 14 nM in assay [1].
Consider `COc1ccc(S(=O)(=O)N(C)c2c(CN3CCN(C)CC3)cccc2C(=O)NO)cc1`, for which half-maximal inhibition in assay [1] (IC50) was put at 1 nM.
For the compound `COC(=O)C1CCCN1Cc1cccc(C(=O)NO)c1N(C)S(=O)(=O)c1ccc(OC)cc1` (stereo not drawn), the half-inhibitory concentration (IC50) in assay [2] stood at 200 nM; in assay [3] it was 517 nM; in assay [4], 6 nM; in assay [1], 5 nM.
As for `COc1ccc(S(=O)(=O)N(C)c2c(CN3CCN(C)CC3)cc(-c3ccc4ccccc4c3)cc2C(=O)NO)cc1`, the IC50 in assay [2] was 49 nM; in assay [3] it was 343 nM; in assay [4], 3 nM; in assay [1], 2 nM.
Regarding `COc1ccc(S(=O)(=O)N(Cc2ccc(CN(C)C)cc2)c2c(C)cccc2C(=O)NO)cc1`, in assay [1], the 50% inhibitory concentration (IC50) came out at 3 nM.
As for `COc1ccc(S(=O)(=O)N(C)c2c(CN3CCN(C(=O)OC(C)(C)C)CC3)cc(Br)cc2C(=O)NO)cc1`, the IC50 in assay [2] was determined as 63 nM; in assay [3] it was 674 nM; in assay [4], 6 nM; in assay [1], 7 nM.
With `CN1CCN(Cc2cc(Br)cc(C(=O)NO)c2N(C)S(=O)(=O)c2ccc(Oc3ccc(Cl)cc3)cc2)CC1`, the IC50 in assay [5] turned out to be 0.7 nM; in assay [6], 80 nM; in assay [7], 82 nM; in assay [1] it was 0.5 nM.
As to `COc1ccc(S(=O)(=O)N(C)c2c(CN3CCN(C)CC3)cc(Br)cc2C(=O)NO)cc1`, the IC50 was determined as 194 nM in assay [3] and 2 nM in assay [1].
As for `CCN(CC)Cc1cccc(C(=O)NO)c1N(C)S(=O)(=O)c1ccc(OC)cc1`, the IC50 in assay [3] came out at 744 nM; in assay [4] it was 84 nM; in assay [1] it was 8 nM.
As for `COc1ccc(S(=O)(=O)N(C)c2c(CN3CCN(C)CC3)cc(-c3ccc(OC(F)(F)F)cc3)cc2C(=O)NO)cc1`, the IC50 in assay [2] is 210 nM; in assay [3] it was 745 nM; in assay [4] it was 4 nM; in assay [1], 2 nM.
In assay [1], `COc1ccc(S(=O)(=O)N(Cc2ccc(N3CCN(C)CC3)cc2)c2c(C)cccc2C(=O)NO)cc1` displayed a concentration for half-maximal inhibition (IC50) of 7 nM.
`CN1CCN(Cc2cccc(C(=O)NO)c2N(C)S(=O)(=O)c2ccc(Oc3ccc(Cl)cc3)cc2)CC1`: the IC50 in assay [2] was 122 nM; in assay [3] it was 155 nM; in assay [4], 0.8 nM; in assay [1] it was 1 nM.
Consider `COc1ccc(S(=O)(=O)N(CC#CCN2CCN(C)CC2)c2c(C)cc(Br)cc2C(=O)NO)cc1`, for which the IC50 in assay [2] is 26 nM; in assay [4] it was 6 nM; in assay [1] it was 10 nM.
On to `COc1ccc(S(=O)(=O)N(C)c2c(CN3CCN(c4ccccc4)CC3)cc(Br)cc2C(=O)NO)cc1`, for which the IC50 in assay [2] is 87 nM; in assay [3] it was 444 nM; in assay [4], 3 nM; in assay [1], 3 nM.
As for `COc1ccc(S(=O)(=O)N(Cc2cccnc2)c2c(C)cccc2C(=O)NO)cc1`, the 50% inhibitory concentration (IC50) in assay [2] is 356 nM and 645 nM; in assay [3] it was 329 nM and 391 nM.
For the compound `COc1ccc(S(=O)(=O)N(Cc2ccc(OCCN3CCCCC3)cc2)c2c(C)cc(Br)cc2C(=O)NO)cc1`, the values for the concentration for half-maximal inhibition (IC50) in assay [4] and in assay [1] were 3 nM and 2 nM, respectively.

A word on the IC50: it is the concentration at which inhibition is half-maximal. A high value points to weaker potency.

The values above are taken from ChEMBL document CHEMBL1133846, “The discovery of anthranilic acid-based MMP inhibitors. Part 3: incorporation of basic amines” (Bioorg Med Chem Lett, 2001).
